Source: US20040023295A1, “Methods and systems for analyzing complex biological systems” (priority 2001, published 2004)

Tested on: Saccharomyces cerevisiae wild type strain BY4743
Assay: AF1 combined gene expression and metabolite data mapped to KEGG reactions and pathways
Assay type: cell-based
Description: In AF1, two different technologies were utilized: gene expression analysis (for examination of mRNA expression) and metabolite analysis. […] As noted previously, existing metabolic databases may be helpful in practicing the methods and systems of the present invention, but many databases include limitations that make their use in data analysis and pathway mapping less than straightforward. […] This caveat to KEGG makes it difficult to pinpoint the correct pathway when attempting to link a gene to a specific pathway. The pathway score indicates how meaningful the mapping is, or how likely it is to be correctly indicative of the pathway involved in the perturbation under examination. […] Degree of perturbation can be calculated, for example, based on a number of standard deviations from a norm, and included in an equation such as the one shown above, so that not only the number of pathways is taken into account, but also accounts for the amount of gene transcript or compound present as compared to a control. […] KEGG links 676 compounds measured in AF1 to a total of 92 pathways. Of the 676 compounds under consideration, 77 were detected in the AF1 samples. […]

C[C@@H]1[C@H](O)[C@@H](C)/C=C/C=C/C=C/C=C/C=C/C=C/C=C/[C@H](O[C@@H]2O[C@H](C)[C@@H](O)[C@H](N)[C@@H]2O)C[C@@H]2O[C@](O)(C[C@@H](O)C[C@@H](O)[C@H](O)CC[C@@H](O)C[C@@H](O)CC(=O)O[C@H]1C)C[C@H](O)[C@H]2C(=O)O [Amphoteracin B]
# Reactions (title: Number Of Pathways Having at Least One Enzyme and One Compound Perturbed): 37
# Reactions Having an Enzyme and at Least One Compound Perturbed: 54
